# Patent US20090060851A1, “USE OF IDEBENONE FOR THE PREPARATION OF A TOPICALLY-APPLIED DEPIGMENTATION COMPOSITION AND CORRESPONDING COMPOSITION” (priority 2005, published 2009)
# Assays:
# Assay type in all cases: cell-based, human
# [1] = tested on: SK-MEL-28; test: Melanin content determination (OD400) in SK-MEL cells; conditions: for OD400 (melanin) / OD400 expressed as percentage of control (melanin): assayed day 5
# Method: (§1) In vitro determinations were performed following the method devised by Dooley et al. (Skin Pharmacol. 1994; 7:188-200) in order to evaluate the capacity of idebenone to inhibit melanogenesis, according to the process described below:
# (§2) Cells: The study was carried out using a cell line derived from human melanoma, provided by ABAC (Asociación Banco Argentino de Células—Cell Bank of Argentina), with melanin synthesis capability (SK-MEL-28, ATCC origin). The cells were grown in plastic culture bottles or in 24-well plastic dishes in a modified Eagle medium (DMEM) supplemented with 10% fetal bovine serum (FBS) and were maintained at 37° C. in a 5% CO2 atmosphere.
# (§3) Study of in vitro compounds: SK-MEL cells detached with trypsin were seeded on plastic 24-well dishes (density of 1×10^5 cells per well) and incubated for 24 hours in modified Eagle medium (DMEM) supplemented with 10% fetal bovine serum (FBS) prior to treating with the compound to be evaluated. After 24 hours have lapsed, the medium was replaced with 990 μl of fresh medium. 10 μl of sterile vehicle (50% propylene glycol, 30% ethanol and 20% distilled water) containing different concentrations of the compounds to be evaluated were added to this fresh medium.
# (§4) Decimal dilutions of each compound in the sterile vehicle were prepared in order to obtain final concentrations of the compound to be studied ranging between 1.000 and 0.01 μg/ml. […]
# […] The cells were thus continuously exposed to the compounds under study for the 5 days the culture lasted. All the concentrations of the compounds were studied in triplicate, comparing the mean of the 3 wells treated with the compounds with those treated with the vehicle alone.
# (§5) Melanin content determination: The SK-MEL cell melanin content was determined after stirring the culture medium and washing the cells with PBS. The cells were then lysated by means of adding 1 ml of 1N NaOH to each well and repeated manual pipetting. The raw cell extract was analyzed using a spectrophotometer at 400 and 475 nm to determine the melanin and dopaquinone content, respectively. The results were expressed as a percentage of the cell cultures treated with the vehicle.
# [2] = tested on: SK-MEL-28; test: Dopaquinone content determination (OD475) in SK-MEL cells; conditions: assayed day 5
# Method: as §1, §2, §3, §4
# […] […] All the concentrations of the compounds were studied in triplicate, comparing the mean of the 3 wells treated with the compounds with those treated with the vehicle alone.
# as §5
# [3] = tested on: SK-MEL-28; test: Cell number quantitation with violet crystal
# Method: Cells: The study was carried out using a cell line derived from human melanoma, provided by ABAC (Asociación Banco Argentino de Células—Cell Bank of Argentina), with melanin synthesis capability (SK-MEL-28, ATCC origin). […] Study of in vitro compounds: […] After 24 hours have lapsed, the medium was replaced with 990 μl of fresh medium. 10 μl of sterile vehicle (50% propylene glycol, 30% ethanol and 20% distilled water) containing different concentrations of the compounds to be evaluated were added to this fresh medium. […] On the fourth day, the cells were not treated, and the remaining adherent cells were assayed on the fifth day according to the methods described below. The cells were thus continuously exposed to the compounds under study for the 5 days the culture lasted. All the concentrations of the compounds were studied in triplicate, comparing the mean of the 3 wells treated with the compounds with those treated with the vehicle alone. Cell number quantitation with violet crystal: A stain with a violet crystal aqueous solution was used for the purpose of determining the number of cells adhering to the plastic surviving in vitro treatment by means of indirect methods. […] The dishes were stained for 5 minutes at room temperature on a rotary platform, with gentle stirring. Then the excess colorant was decanted by turning the dish over and the entire dish was submerged 4 times in distilled water in a suitable container. After rinsing, the dishes were turned over and allowed to drip on absorbent paper until the excess water was completely removed. […] The plates were finally placed on a rotary agitator for 30 minutes at room temperature. […] In order to determine the fraction of cells surviving treatment at a specific concentration of the experimental agent, the OD590 of the treated wells (average of three measurements) was divided by the OD590 of the wells used with a control vehicle (average of three measurements).
# [4] = dilution −1, treated daily 3 days
# [5] = dilution −2, treated daily 3 days
# [6] = dilution −3, treated daily 3 days
# [7] = dilution −4, treated daily 3 days
# [8] = dilution −5, treated daily 3 days
smiles,measurement,setting,value
"Oc1ccc(O)cc1 [hydroquinone, 1,4-benzenediol]",Melanin synthesis inhibition,"[1]; SK-MEL-28, Example 5",stops being effective
same,OD400 (melanin),[1]; [4],0.007
same,OD400 expressed as percentage of control (melanin),[1]; [4],21%
same,OD400 (melanin),[1]; [5],0.012
same,OD400 expressed as percentage of control (melanin),[1]; [5],36%
same,OD400 (melanin),[1]; [6],0.021
same,OD400 expressed as percentage of control (melanin),[1]; [6],64%
same,OD400 (melanin),[1]; [7],0.036
same,OD400 expressed as percentage of control (melanin),[1]; [7],109%
same,OD400 (melanin),[1]; [8],0.034
same,OD400 expressed as percentage of control (melanin),[1]; [8],103%
same,OD475 (dopaquinone),[2]; [4],0.0001
same,OD475 expressed as percentage of control (dopaquinone),[2]; [4],0%
same,OD475 (dopaquinone),[2]; [5],0.0013
same,OD475 expressed as percentage of control (dopaquinone),[2]; [5],8%
same,OD475 (dopaquinone),[2]; [6],0.0083
same,OD475 expressed as percentage of control (dopaquinone),[2]; [6],51%
same,OD475 (dopaquinone),[2]; [7],0.0163
same,OD475 expressed as percentage of control (dopaquinone),[2]; [7],100%
same,OD475 (dopaquinone),[2]; [8],0.0163
same,OD475 expressed as percentage of control (dopaquinone),[2]; [8],100%
same,Toxicity for cells,"[3]; SK-MEL-28, high concentrations",toxicity for hydroquinone was higher
same,Percentage of viable cells,"[3]; dilution −1, percentage of control vehicle",34%
same,Percentage of viable cells,"[3]; dilution −2, percentage of control vehicle",58%
same,Percentage of viable cells,"[3]; dilution −3, percentage of control vehicle",77%
same,Percentage of viable cells,"[3]; dilution −4, percentage of control vehicle",89%
same,Percentage of viable cells,"[3]; dilution −5, percentage of control vehicle",95%
